Values of other authors, collected in patent publication US20240374634A1, “NUTRACEUTICAL OPHTHALMIC COMPOSITION FOR THE TREATMENT OF RETINAL PATHOLOGIES HAVING A NEOVASCULAR COMPONENT” (Laboratoires THEA, priority 2018, published 2024).

Conditions: 300 patients over three years, after a significant increase in DHA in cells

Structure (SMILES): CC/C=C\C/C=C\C/C=C\C/C=C\C/C=C\C/C=C\CCC(=O)O [DHA, Docosahexaenoic acid (DHA)]
- reduction in the risks of developing neovascular AMD: 68%
